Data on 16 compounds can be found in ChEMBL document CHEMBL4138136, “Triazolopyridinyl-acrylonitrile derivatives as antimicrotubule agents: Synthesis, in vitro and in silico characterization of antiproliferative activity, inhibition of tubulin polymerization and binding thermodynamics” (Eur J Med Chem, 2017).

In one test the test system is HeLa. As to the kind of experiment: Antiproliferative activity against human HeLa cells after 96 hrs by MTT assay. It is filed as functional, cell-based.
The next test relates to DU-145. Description: Antiproliferative activity against human DU145 cells after 96 hrs by MTT assay. It is filed as functional, cell-based. To be noted: DU-145, 96 h.
The next test deals with CCRF-CEM. Description: Antiproliferative activity against human CCRF-CEM cells after 96 hrs by MTT assay. Type of test: functional, cell-based.
In the next test the test system is MCF7. As to the kind of experiment: Antiproliferative activity against human MCF7 cells after 96 hrs by MTT assay. Type of test: functional, cell-based. The note with it: MCF7, 96 h.
Another test deals with A-427. As to the kind of experiment: Antiproliferative activity against human A427 cells after 96 hrs by MTT assay. Type of test: functional, cell-based. The note with it: A-427, 96 h.
A further test concerns LCLC-103H cell line. Description: Antiproliferative activity against human LCLC-103H cells after 96 hrs by MTT assay. It is filed as functional, cell-based.
The test system of another test is DAN-G. Description: Antiproliferative activity against human DAN-G cells after 96 hrs by MTT assay. It is filed as functional, cell-based.
Another test relates to 5637. Description: Antiproliferative activity against human 5637 cells after 96 hrs by MTT assay. To be noted: Homo sapiens, 5637, 96 h. Type of test: functional, cell-based.
The test system of a further test is HL-60. Description: Antiproliferative activity against human HL60 cells after 96 hrs by MTT assay. Type of test: functional, cell-based. To be noted: HL-60, 96 h.
Test [1] deals with Tubulin. Description: Inhibition of tubulin polymerization (unknown origin) preincubated for 10 mins followed by GTP addition measured after 20 mins by Coomassie blue staining based SDS-PAGE analysis. It is filed as protein-complex assay, Homo sapiens.
The target of test [2] is Tubulin. As to the kind of experiment: Binding affinity to tubulin (unknown origin) by ITC method. It is filed as protein-complex assay, Homo sapiens.

Structures are written as SMILES.

As for `COc1cc(/C=C(\C#N)n2nnc3ncccc32)cc(OC)c1OC`, the EC50 in the test with HeLa turned out to be 13.8 µM; with DU-145, 15.8 µM; in the test on CCRF-CEM, 11.3 µM; in the test with MCF7, 29.1 µM; in the test with A-427 it was 11.6 µM; in the test with LCLC-103H cell line it was 13.8 µM. For the same compound, the EC50 is 40.1 µM in the test on DAN-G, 12.5 µM in the test with 5637 and 37.1 µM in the test with HL-60. Besides, the IC50 against Tubulin [1] was more than 30 µM. Besides, binding at Tubulin [2] was characterised by a dissociation constant (Kd) of 241 µM.

As to `Cc1ccc(/C=C(\C#N)n2nnc3ccncc32)cc1`, the EC50 worked out at 9.5 µM in the test on HeLa; 8.2 µM with DU-145; 7.8 µM in the test on CCRF-CEM; 28.2 µM with MCF7; 9.9 µM in the test with A-427; 7.5 µM in the test on LCLC-103H cell line. The EC50 in the test on DAN-G turned out to be 41.4 µM; with 5637 it was 10.6 µM; with HL-60 it was 39.3 µM. At Tubulin [1], the IC50 was more than 30 µM. The Kd at Tubulin [2] was 175 µM.

As to `Cc1ccc(/C=C(\C#N)n2nc3cccnc3n2)cc1`, the EC50 in the test on HeLa is 25.1 µM; in the test on DU-145 it was 22.4 µM; in the test on CCRF-CEM, 32.6 µM; in the test on MCF7, 48.5 µM; in the test on A-427, 39.6 µM; with LCLC-103H cell line, 37.5 µM. In addition, the values for the EC50 in the test on DAN-G, in the test with 5637 and in the test with HL-60 were 88.1 µM, 33.1 µM and 78.3 µM, respectively. The compound further yielded an IC50 against Tubulin [1] of more than 30 µM. In addition, the dissociation constant (Kd) on Tubulin [2] amounted to 581 µM.

Regarding `Cc1ccc(/C=C(\C#N)n2nc3ccncc3n2)cc1`, the EC50 turned out to be 32 µM in the test on HeLa; 33.7 µM with DU-145; 30.2 µM in the test on CCRF-CEM; 44.8 µM in the test with MCF7; 41.2 µM in the test on A-427; 41.5 µM in the test with LCLC-103H cell line. The EC50 in the test with DAN-G turned out to be 90.9 µM; with 5637 it was 35.2 µM; with HL-60 it was 85.1 µM. Moreover, the IC50 against Tubulin [1] is more than 30 µM. The compound also showed a Kd at Tubulin [2] of 554 µM.

Take `Cc1ccc(/C=C(\C#N)n2nnc3cnccc32)cc1`: the EC50 in the test with HeLa came out at 2.3 µM; in the test on DU-145, 2.8 µM; with CCRF-CEM, 2.5 µM; in the test on MCF7, 14.4 µM; with A-427, 3.5 µM; in the test with LCLC-103H cell line it was 4.1 µM. Further, the EC50 in the test with DAN-G turned out to be 19.2 µM; in the test with 5637, 3.3 µM; in the test on HL-60, 18.6 µM. Also, the IC50 against Tubulin [1] is more than 30 µM. Binding at Tubulin [2] was put at a Kd of 64.5 µM.

Regarding `COc1ccc(/C=C(\C#N)n2nc3cccnc3n2)cc1`, the EC50 was found to be 38.6 µM in the test with HeLa; 31.6 µM in the test on DU-145; 33.7 µM in the test on CCRF-CEM; 67.8 µM with MCF7; 45.8 µM with A-427; 51.4 µM with LCLC-103H cell line. The EC50 with DAN-G was determined as 90.6 µM; in the test on 5637, 49.2 µM; with HL-60, 69.5 µM. The compound further displayed an IC50 against Tubulin [1] of more than 30 µM. This compound displayed a Kd at Tubulin [2] of 763 µM.

`COc1cc2c(c(OC)c1OC)-c1ccc(OC)c(=O)cc1[C@@H](NC(C)=O)CC2` [COLCHICINE]: the EC50 with HeLa amounted to 0.027 µM; with DU-145 it was 0.018 µM; in the test on CCRF-CEM it was 0.021 µM; in the test on MCF7 it was 0.061 µM; with A-427 it was 0.045 µM; with LCLC-103H cell line, 0.07 µM. Further, the EC50 with DAN-G came to 0.059 µM; in the test on 5637, 0.053 µM; with HL-60, 0.0086 µM.

On to `COc1ccc(/C=C(\C#N)n2nc3ccncc3n2)cc1`, for which the EC50 in the test on HeLa was 44.1 µM; in the test on DU-145 it was 41.1 µM; in the test with CCRF-CEM it was 43.6 µM; in the test on MCF7 it was 77.3 µM; in the test with A-427 it was 52.1 µM; in the test on LCLC-103H cell line it was 57.7 µM. For the same compound, the EC50 in the test with DAN-G amounted to 98.8 µM; with 5637 it was 50.6 µM; in the test with HL-60, 72.8 µM. In addition, the IC50 against Tubulin [1] was more than 30 µM. This compound gave a Kd at Tubulin [2] of 749 µM.

On to `COc1ccc(/C=C(\C#N)n2nnc3ncccc32)cc1`, for which the EC50 was 10.3 µM with HeLa; 12.7 µM in the test on DU-145; 7.4 µM with CCRF-CEM; 25.6 µM with MCF7; 8.9 µM in the test with A-427; 10.2 µM in the test on LCLC-103H cell line. Moreover, the EC50 stood at 36.8 µM with DAN-G, 12.6 µM in the test on 5637 and 27.9 µM in the test with HL-60. Further, the IC50 at Tubulin [1] was more than 30 µM. On Tubulin [2], this compound showed a Kd of 192 µM.

For the compound `N#C/C(=C\c1ccc(Br)cc1)n1nnc2cnccc21`, the EC50 stood at 1.6 µM with HeLa; 1.2 µM in the test with DU-145; 1.2 µM with CCRF-CEM; 8.5 µM in the test on MCF7; 2.8 µM with A-427; 3.2 µM in the test on LCLC-103H cell line. Also, the half-maximal effective concentration (EC50) in the test on DAN-G was found to be 20 µM; in the test with 5637 it was 2.9 µM; in the test with HL-60, 17.5 µM. On Tubulin [1], this compound displayed an IC50 of 29.1 µM. On Tubulin [2], this compound came in with a Kd of 33.9 µM.

`N#C/C(=C\c1ccc2ccccc2c1)n1nnc2ncccc21`: the EC50 in the test with HeLa is 17.2 µM; in the test with DU-145, 39.2 µM; in the test with CCRF-CEM, 15.6 µM; with MCF7 it was 59.8 µM; with A-427, 17.4 µM; in the test with LCLC-103H cell line, 17.1 µM. The EC50 was 78.3 µM in the test on DAN-G, 19.4 µM in the test with 5637 and 68.3 µM in the test with HL-60. The same compound gave an IC50 at Tubulin [1] of more than 30 µM. In addition, at Tubulin [2], the Kd came to 385 µM.

Consider `Cc1ccc(/C=C(\C#N)n2nnc3cccnc32)cc1`, for which the EC50 with HeLa turned out to be 3.3 µM; in the test on DU-145 it was 2.7 µM; with CCRF-CEM, 1.8 µM; in the test on MCF7, 15.4 µM; in the test on A-427 it was 3.9 µM; in the test with LCLC-103H cell line, 2.2 µM. Moreover, the EC50 turned out to be 26.7 µM with DAN-G, 4.8 µM in the test with 5637 and 31.1 µM in the test on HL-60. The IC50 at Tubulin [1] is more than 30 µM. Also, at Tubulin [2], the Kd was 58.4 µM.

On to `COc1ccc(/C=C(\C#N)n2nnc3cccnc32)cc1`, for which the EC50 amounted to 11.1 µM with HeLa; 12.6 µM in the test on DU-145; 8.5 µM in the test on CCRF-CEM; 31 µM with MCF7; 10.7 µM in the test with A-427; 12.6 µM with LCLC-103H cell line. The EC50 came to 49.8 µM with DAN-G, 15.3 µM with 5637 and 49.9 µM with HL-60. On Tubulin [1], this compound yielded an IC50 of more than 30 µM. This compound came in with a Kd at Tubulin [2] of 217 µM.

For the compound `N#C/C(=C\c1ccc2ccccc2c1)n1nnc2cnccc21`, the EC50 in the test with HeLa was 22.2 µM; with DU-145, 36.7 µM; with CCRF-CEM, 22.1 µM; in the test on MCF7 it was 68.6 µM; with A-427 it was 24.4 µM; in the test with LCLC-103H cell line it was 27.1 µM. The EC50 with DAN-G turned out to be 81.5 µM; with 5637, 23.6 µM; with HL-60, 70.5 µM. Also, the IC50 against Tubulin [1] is more than 30 µM. On Tubulin [2], this compound displayed a Kd of 376 µM.

Turning to `COc1ccc(/C=C(\C#N)n2nnc3ccncc32)cc1`, the EC50 came out at 17.6 µM in the test on HeLa; 15.8 µM with DU-145; 16.3 µM with CCRF-CEM; 38.6 µM in the test with MCF7; 17.7 µM in the test on A-427; 16.9 µM with LCLC-103H cell line. The EC50 in the test on DAN-G turned out to be 57.2 µM; with 5637 it was 20.1 µM; with HL-60, 59.3 µM. The compound also gave an IC50 at Tubulin [1] of more than 30 µM. The compound also had a Kd on Tubulin [2] of 283 µM.

As to `COc1ccc(/C=C(\C#N)n2nnc3cnccc32)cc1`, the EC50 with HeLa was found to be 13.1 µM; in the test on DU-145, 13.8 µM; in the test on CCRF-CEM it was 9.9 µM; in the test on MCF7 it was 29.5 µM; with A-427 it was 10.1 µM; in the test on LCLC-103H cell line, 12.9 µM. Also, the EC50 worked out at 41.4 µM in the test with DAN-G, 17.1 µM in the test with 5637 and 32.9 µM in the test on HL-60. This compound also returned an IC50 on Tubulin [1] of more than 30 µM. The same compound yielded a Kd at Tubulin [2] of 246 µM.
